Results as given in publication PMC9534960, “De Novo Design of an Androgen Receptor DNA Binding Domain‐Targeted peptide PROTAC for Prostate Cancer Therapy” (Advanced Science, 2022).
Each block holds one molecule with its values, some of them ahead of it. No end group written: not given here.

Legend:
[1] = system: AR in CWR22rv1 cells; test: Immunoblot AR degradation, CWR22rv1; assay type: cell-based; settings: immunoblot (Figure S16)
Description: H, I) IB analysis of WCLs from C4‐2 cells (H) and LNCaP cells (I) treated with CHX for the indicated times, with or without 250 nM Au‐AR DBD PROTAC drug treatment. The signal intensity of AR normalized to that of Vinculin was quantified. […] The signal intensities of AR and AR‐V7 normalized to that of Vinculin were quantified separately.
To investigate the AR cleavage ability of the Au‐AR DBD PROTAC drug, an immunoblot (IB) analysis of AR was performed. The primary antibody (catalog number:sc‐7305) targeting AR we used is raised against amino acids 299–315 of AR, so we could determine both AR and AR‐V7 at the same time.
Immunoblotting was performed to determine the AR amount after Au‐AR DBD PROTAC treatment. Cells were lysed in EBC buffer (50 mM Tris (pH 7.5), 120 mM NaCl, and 0.5% NP‐40) supplemented with protease inhibitors. Cell lysates were quantified by a Pierce bicinchoninic acid (BCA) Protein Assay Kit (Thermo Fisher). Equal amounts of total proteins were loaded for western blotting analysis. The proteins were separated by SDS‐PAGE gels. Then proteins were transferred to polyvinylidene fluoride (PVDF) membranes and incubated with specific primary antibodies at 4 °C overnight. After incubating with HRP‐conjugated secondary antibody for 1 h at room temperature, the protein immunoreactive signals were tested.

[2] = system: C4‐2 xenografts; test: C4‐2 subcutaneous xenograft, tumor growth; assay type: in vivo, nude mice; settings: 2 mg kg^−1, subcutaneous injection, every three days for three weeks, n = 5 per group
Description: (§1) Two administration routes were tested in the xenograft models, with subcutaneous injection (SC.) in C4‐2 models and intraperitoneal injection (IP.) in CWR‐22rv1 models. […] Each injection volume was 100 µl and PBS was used as control.
(§2) IHC score analysis was performed by the Image J IHC profiler.
(§3) A) Tumor growth curves of C4‐2 xenografts in nude mice treated as indicated (n = 5 per group). Statistical analysis was performed using the nonparametric Kruskal‐Wallis test; ****, p < 0.0001. The data are presented as the mean ± SD values (n = 5). B) Photos of C4‐2 tumors excised at the end of the experiment after different drug treatments. C) Average weight of tumors excised from each group of mice at the end of drug treatment. The data are presented as the mean ± SD values (n = 5). […] IHC scores were determined with ImageJ: 4, highly positive; 3, positive; 2, minimally positive; 1, negative. […] […]
(§4) Treatment of five groups of mice (5 mice per group) was initiated (i.e., day 1) after tumors were established in 2 weeks as palpable masses (50 mm^3). […] The tumor length and width were measured with calipers, and the tumor volume was calculated using the following equation: tumor volume (V) = length × width^2/2. […] All IHC staining images were scored using ImageJ profiler as published protocol.

[3] = system: CWR22Rv1 xenografts; test: CWR22Rv1 subcutaneous xenograft, tumor growth; assay type: in vivo, nude mice; settings: 2 mg kg^−1, intraperitoneal injection, every three days for three weeks, n = 5 per group
Description: as §1, §2, §3, §4

[4] = system: AR ΔDBD; test: ITC binding to AR ΔDBD; settings: AR with mutation of amino acids (575‐591) in the DBD
Description: To determine the specificity of AR pep‐PROTAC, mutation of amino acids (575‐591) in the AR DBD plasmid was conducted.
ITC (isothermal titration calorimetry) was an established technique that can determine the binding ability between protein and ligands. The signal measured was the heat released upon the interaction of the two reactants. All proteins – MDM2, AR‐V7, or AR ΔDBD were obtained with E.Coli expression and purified by affinity chromatography. All peptides were synthesized by solid‐phase peptide synthesis and purified by preparative high‐performance liquid chromatography. For ITC experiments, clean sample cells and injection syringe were cleaned according to the manufacturer's protocol before loading protein and peptide. Rinse the sample cell several times with 2 ml of buffer. Load the sample cell with 0.2 ml of protein solution (all proteins concentration were around 20 µM), being careful to avoid bubble formation, load the syringe with 0.04 ml peptide solution (all peptides concentrations were around 200 µM). Choose the temperature at 25 °C for the ITC experiments. a small volume (0.4 µl) for the first injection was used and keep the subsequent injections at the desired volume (2 µl for 19 injections). Once the experiment had finished, the ITC data was fitted with the analysis software for the instrument.
Figure S20. Binding affinity between AR pep-PROTAC and AR-ΔDBD measured […]

Molecule: N#Cc1ccc(O[C@H]2CC[C@H](NC(=O)c3ccc(N4CCC(CN5CCN(c6cc7c(cc6F)C(=O)N(C6CCC(=O)NC6=O)C7=O)CC5)CC4)nn3)CC2)cc1Cl (stereo partly shown) [ARV‐110]
full‐length AR degradation in CWR22rv1 cells (in words) [1]: induced full‐length AR degradation

Molecule: CNC(=O)c1ccc(N2C(=S)N(c3ccc(C#N)c(C(F)(F)F)c3)C(=O)C2(C)C)cc1F [enzalutamide]
effect on tumor growth, C4‐2 xenograft [2]: inhibited tumor growth
effect on tumor growth, CWR22Rv1 xenograft [3]: but not the CWR22Rv1 xenograft model

interaction with AR ΔDBD by ITC [4]: no interaction
Molecule: YLCSSNNNRERDKFRRGGSGGTSFEQFWAWLWP-NH2 (C-terminus assumed) [AR pep‐PROTAC]
